Test results reported in patent publication US20070275911A1, “Targeted Drug-Formaldehyde Conjugates and Methods of Making and Using the Same” (priority 2003, published 2007).

Legend:
[1] = Tolerance, acute toxicity and efficacy in mice; conditions: preliminary mouse in vivo formulation experiments
[2] = Hydrolysis and stability of DOX-TEG-TAM; type: physicochemical
Protocol: Results: Hydrolysis and stability. A standard solution of DOX-TEG-TAM (11c) in dimethylsulfoxide (DMSO) containing 1% v/v acetic acid (AcOH) was diluted 1:100 in two different buffers: lysis buffer (pH 7.4, 10 mM Tris, 1.5 mM EDTA, 10 mM Na2MoO4) used for binding experiments or TE buffer (pH 7.6, 10 MM Tris, 1 mM EDTA). Samples incubated at 37° C. and 4° C. were monitored by HPLC to detect the loss of intact targeted drug and the formation of doxorubicin. The hydrolysis data was fit using first-order reaction kinetics to provide first-order rate constants; the hydrolysis half-life was then calculated using t1/2=ln2/k.
The DOX-TEG-TAM was diluted 1:100 in either pH 7.6 TE buffer (10 mM tris, 1 mM EDTA buffer) or pH 7.4 lysis buffer (10% v/v glycerol, 10 mM Tris, 1.5 mM EDTA, 10 mM Na2MoO4). A sample of each buffer was kept at 37° C. and 4° C. and monitored by HPLC using Method #2 (described above) to track the loss of DOX-TEG-TAM and the subsequent formation of doxorubicin. The area-under-the-curve (AUC) was used to calculate the percentage of intact material versus time. The hydrolysis data were fit to first-order kinetics using Regression (Blackwell Scientific Publishing, London) software. The reaction rate constants were 0.012±0.0007 min^−1 (pH 7.6) and 0.0092±0.0003 min^−1 (pH 7.4) at 37° C.; 0.0058±0.0005 h^−1 (pH 7.6) and 0.0038±0.0003 h^−1 ([…]) at 4° C. The half-life for hydrolysis was then calculated from the rate constants using t1/2=ln2/k.

[3] = biological target: T1, estrogen receptor (Homo sapiens, UniProt P03372); assay: Estrogen receptor competitive binding assay (3H-E2, MCF-7 cell lysate)
T1 construct: endogenous in cells; host or cells: MCF-7 cells (ATCC); 225,000 g supernatant of sonicated lysate
T1 sequence (P03372 whole entry): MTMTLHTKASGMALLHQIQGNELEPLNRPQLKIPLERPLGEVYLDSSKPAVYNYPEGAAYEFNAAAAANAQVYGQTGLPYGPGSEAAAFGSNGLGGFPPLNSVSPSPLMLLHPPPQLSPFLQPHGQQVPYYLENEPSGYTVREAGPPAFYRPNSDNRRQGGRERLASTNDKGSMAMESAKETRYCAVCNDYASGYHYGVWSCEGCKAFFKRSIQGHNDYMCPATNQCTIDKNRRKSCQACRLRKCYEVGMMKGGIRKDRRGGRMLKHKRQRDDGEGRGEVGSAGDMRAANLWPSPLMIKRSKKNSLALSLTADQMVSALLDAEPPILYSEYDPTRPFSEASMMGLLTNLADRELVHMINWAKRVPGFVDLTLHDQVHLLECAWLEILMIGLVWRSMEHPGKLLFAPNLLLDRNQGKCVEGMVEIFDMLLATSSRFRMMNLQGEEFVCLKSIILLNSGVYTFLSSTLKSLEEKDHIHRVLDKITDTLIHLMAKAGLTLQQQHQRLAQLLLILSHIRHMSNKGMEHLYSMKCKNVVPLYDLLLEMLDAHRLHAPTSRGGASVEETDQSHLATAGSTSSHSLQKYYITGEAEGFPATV

[4] = Hydrolysis of anthracycline-formaldehyde N-Mannich bases followed by HPLC
Protocol: The area under the curve for the N-Mannich base was determined at each time point and was used to establish the kinetics of decomposition, using regression software. Hydrolysis of AOM-doxsaliform was carried out in pH 8.0 100 mM sodium phosphate buffer at 37° C. AOM-doxsaliform was dissolved in 48.0 μL DMSO and this solution was diluted into phosphate buffer to give 4.8 mL of an […] solution containing 1% DMSO. To this solution was added 6 μL of pig liver esterase (0.8 units/μL; Sigma; Milwaukee, Wis.) to achieve a final concentration of 1.0 units/mL. […] Brief centrifugation served to pellet the insoluble fraction. The drug solution was then transferred to a round bottom flask and concentrated by brief rotary-evaporation at 20° C. Reverse phase HPLC was used to analyze the extent of hydrolysis.
Hydrolysis of the N-Mannich bases, prepared from either doxorubicin or daunorubicin and the respective amides, at 37° C. in pH 7.4 triethylammonium acetate (TEAA) buffer (20 mM) containing 10-30% MeOH was monitored by reverse phase HPLC. […] Identification of a less robust construct that could be used to rapidly deliver the active Schiff base metabolite of doxorubicin to a growing tumor was undertaken.

| SMILES | acute toxicity [1] | reaction rate constant ([2]; pH 7.4, 37° C.) [min⁻¹] | reaction rate constant ([2]; pH 7.5, 4° C.) [min⁻¹] | reaction rate constant ([2]; pH 7.6, 4° C.) [min⁻¹] | reaction rate constant ([2]; pH 7.6, 37° C.) [min⁻¹] | estrogen receptor binding affinity retained relative to targeting group alone [3] [%] | RBA^OHT ([3]; relative to E/Z-4-OHT = 100) | estimated pKa of the amino moiety [4] | storage stability of lyopholyzed salts ([4]; −20° C.) | decomposition of the free base on storage ([4]; −20° C., after 3 weeks) [%] |
| --- | --- | --- | --- | --- | --- | --- | --- | --- | --- | --- |
| CC/C(=C(/c1ccc(O)cc1)c1ccc(OCCN(C)CCOCCOCCO/N=C/c2ccc(O)c(C(=O)NCN[C@H]3C[C@H](O[C@H]4C[C@](O)(C(=O)CO)Cc5c(O)c6c(c(O)c54)C(=O)c4c(OC)cccc4C6=O)O[C@@H](C)[C@H]3O)c2)cc1)c1ccccc1 [11c, E/Z-N-(2-Hydroxy-5-{[2-(2-{2-[(2-{4-[1-(4-hydroxy-phenyl)-2-phenyl-but-1-enyl]-phenoxy}-ethyl)-methyl-amino]-ethoxy}-ethoxy)-ethoxyimino]-methyl}-benzamide)-doxorubicin] | substantially less than that of doxoform | 0.0092 ± 0.0003 | 6.33e-05 ± 5e-06 | 9.67e-05 ± 8.3e-06 | 0.012 ± 0.0007 | 2.5 | 2.5 |  |  |  |
| COc1cccc2c1C(=O)c1c(O)c3c(c(O)c1C2=O)C[C@@](O)(C(=O)CO)C[C@@H]3O[C@H]1C[C@H](NCNC(=O)c2ccccc2O)[C@H](O)[C@H](C)O1 [doxsaliform, N-(2-Hydroxybenzamido-methyl)-doxorubicin] |  |  |  |  |  |  |  | 3.0-3.5 | stable at −20 °C for periods of several months | ~20 |
